Measurements as given in PMC6558205 (Frontiers in Pharmacology, 2019).

What was measured:
[1] = target: T1, human long isoform of D2 receptor (D2LR) (Homo sapiens, UniProt P14416); experiment: Estimation of functional selectivity between Gi and β-arr2 pathways (ratios of Ki, Imax, Imax/Ki); type: cell-based
T1 construct: expressed in transfected cells; host or cells: HEK293T
Text: (§1) Then, for every compound, we calculate the ratios of their K i and I max values for the two pathways.

[2] = Solubility limit seen in inhibition curves; type: physicochemical; settings: complete inhibition curves not obtained in Gi antagonism assay
[3] = target: T1, human long isoform of D2 receptor (D2LR); experiment: BRET assay of inhibition of dopamine-induced Gi activation in HEK-293T cells; type: cell-based; settings: 100 nM dopamine; for Ki: Ki (nM) (95% CI), apparent affinity, IC50 corrected by Cheng–Prusoff, HEK-293T; for I max for inhibition of the dopamine effect on Gi: text summary over 5 and 20 min
Text: as §1

[4] = target: T1, human long isoform of D2 receptor (D2LR); experiment: BRET assay of Gi activation, agonistic effect at the D2R canonical pathway, in HEK-293T cells; type: cell-based; settings: BRET signal after 5 min stimulation, decrease = activation
Description: HEK293T cells were cultured in Dulbecco’s modified eagle medium (DMEM) supplemented with 10% fetal bovine serum and 100 U/mL penicillin/streptomycin at 37°C in 5% CO2. Forty-eight hours before the experiments, cells were transfected in suspension, using polyethylenimine (PEI; 25 kDa linear; Polysciences, Warrington, PA, USA) at a ratio of 3:1 PEI/DNA, and directly seeded in 96-well white plates (OptiPlate; PerkinElmer) at a density of 4 × 10^4 cells/well and at 37°C in 5% CO2. When needed, total DNA amount was adjusted with salmon sperm DNA (Invitrogen, Carlsbad, CA, USA).

[5] = target: T1, human long isoform of D2 receptor (D2LR); experiment: ebBRET assay of inhibition of dopamine-induced β-arrestin-2 translocation in HEK-293T cells; type: cell-based; settings: 10 µM dopamine; for Ki: Ki (nM) (95% CI), apparent affinity, IC50 corrected by Cheng–Prusoff, HEK-293T
Text: as §1

T1 sequence (P14416 whole entry, canonical isoform): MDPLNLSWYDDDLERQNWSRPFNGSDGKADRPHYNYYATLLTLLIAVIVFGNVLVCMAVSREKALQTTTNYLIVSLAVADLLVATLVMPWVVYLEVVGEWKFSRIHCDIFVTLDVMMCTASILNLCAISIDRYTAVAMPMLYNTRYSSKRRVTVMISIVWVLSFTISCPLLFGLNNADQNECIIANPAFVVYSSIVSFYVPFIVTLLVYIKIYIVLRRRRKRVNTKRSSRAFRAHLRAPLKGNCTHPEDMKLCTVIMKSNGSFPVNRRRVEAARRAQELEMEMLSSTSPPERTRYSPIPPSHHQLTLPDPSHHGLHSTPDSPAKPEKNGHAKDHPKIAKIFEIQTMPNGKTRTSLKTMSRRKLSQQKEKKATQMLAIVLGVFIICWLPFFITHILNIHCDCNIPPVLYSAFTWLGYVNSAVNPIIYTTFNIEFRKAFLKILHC

Imax (Gi)/Imax (β-arr) ([1]; 5 min)	Ki (Gi)/Ki (β-arr) ([1]; 5 min)	Imax (Gi)/Imax (β-arr) ([1]; 20 min)	Ki (Gi)/Ki (β-arr) ([1]; 20 min)	I max (% dopamine effect) ± S.E.M., 5 min Gi ([3]; 5 min) [% dopamine effect]	I max (% dopamine effect) ± S.E.M., 20 min Gi ([3]; 20 min) [% dopamine effect]	Ki ([3]; 5 min Gi, 5 min) [nM]	Ki ([3]; 20 min Gi, 20 min) [nM]	I max for inhibition of the dopamine effect on Gi [3]	E max for Gi activation (change in BRET signal) [4]	I max (% dopamine effect) ± S.E.M., 5 min β-arr ([5]; 5 min) [% dopamine effect]	I max (% dopamine effect) ± S.E.M., 20 min β-arr ([5]; 20 min) [% dopamine effect]	Ki ([5]; 5 min β-arr, 5 min) [nM]	Ki ([5]; 20 min β-arr, 20 min) [nM]	SMILES	Solubility [2]
0.51	1.08	0.56	1.60	75.1 ± 16.3	72.4 ± 9.8	118	66.7	70–80%	−0.07	148 ± 20	129 ± 12	109	41.6	Clc1ccc(-n2cc(CN3CCN(c4ccccc4)CC3)cn2)cc1 [LASSBio-579, 1-((1-(4-chlorophenyl)-1H-pyrazol-4-yl)methyl)-4-phenylpiperazine]	lack of solubility at higher concentrations
1.11	0.74	0.76	0.91	78.9 ± 19.2	71.6 ± 13.7	263	190	70–80%	−0.04	71.3 ± 12.3	94.2 ± 7.4	353	209	Oc1ccc(N2CCN(Cc3cnn(-c4ccc(Cl)cc4)c3)CC2)cc1 [LQFM 037]	lack of solubility at higher concentrations
